Data from patent US9376396B2, “Acylaminocycloalkyl compounds suitable for treating disorders that respond to modulation of dopamine D3 receptor” (AbbVie Deutschland GmbH & Co. KG, priority 2012, dated 2016).
pIC50, pKi: −log10 of the molar value.

Columns and labels:
[1] = Determination of the microsomal half-life / microsomal clearance, rat; type: in vitro ADME; conditions: rat liver microsomes, 0.5 μM test substance, 0.25 mg microsomal protein/ml, NADPH, 37° C.
Procedure: (§1) The metabolic stability of the compounds of the invention was determined in the following assay.
(§2) The test substances were incubated in a concentration of 0.5 μM as follows:
(§3) 0.5 μM test substance are preincubated together with liver microsomes from different species (from rat, human or other species) (0.25 mg of microsomal protein/ml) in 0.05 M potassium phosphate buffer of pH 7.4 in microtiter plates at 37° C. for 5 min. The reaction is started by adding NADPH (1 mg/mL). After 0, 5, 10, 15, 20 and 30 min, 50 μl aliquots are removed, and the reaction is immediately stopped and cooled with the same volume of acetonitrile. The samples are frozen until analyzed. The remaining concentration of undegraded test substance is determined by MSMS. The half-life (T½) is determined from the gradient of the signal of test substance/unit time plot, it being possible to calculate the half-life of the test substance, assuming first order kinetics, from the decrease in the concentration of the compound with time. The microsomal clearance (mCl) is calculated from mCl=ln 2/T½/(content of microsomal protein in mg/ml)×1000 [ml/min/mg] (modified from references: Di, The Society for Biomoleculur Screening, 2003, 453-462; Obach, DMD, 1999 vol 27. N 11, 1350-1359).

hERG cardiac K+ channel = target: T1, hERG cardiac K+ channel (Homo sapiens, UniProt Q12809); experiment: Blocking the hERG channel ([3H]dofetilide displacement); type: binding; conditions: membrane homogenate from HEK 293 cells expressing hERG
T1 construct: expressed in transfected cells; host or cells: HEK-293
Procedure: The binding affinity of test drugs for the hERG cardiac K^+ channel was determined by their ability to displace tritiated dofetilide (a class III antiarrhythmic drug and potent hERG blocker) in membrane homogenates from HEK-293 cells heterogeneously expressing the hERG channel. The assay was performed as previously described G. J. Diaz et al., Journal of Pharmacological and Toxicological Methods, 50 (2004), 187-199). For this, drug dilutions were prepared from 10 mM DMSO stocks and the following were added to a 96-well polystyrene plate (Perkin-Elmer Optiplate): 20 μl of assay binding buffer (for total bounds), or 1 μM astemizole (for non-specific bounds), or test drug, 50 μl of [^3H]dofetilide (20 nM, ˜80 Ci/mmol specific activity), and 130 μl of membrane homogenate from HEK 293 cells stably transfected with hERG K^+ channels (final protein concentration of 30 μg per well). The plates were incubated at ambient temperature for 45 min, aspirated onto GF/B filter plates (Perkin-Elmer), and washed with 2 ml of cold wash buffer. After allowing the plates to dry, 50 μl of scintillant (Perkin-Elmer MicroScint 20) were added to each well and the radioactivity was counted in a Perkin-Elmer Topcount NXT scintillation counter. IC50 determinations were calculated from competition curves using 6 drug concentrations, half-log apart, starting at a high concentration of 100 μM (final assay DMSO concentration=1%) using a four-parameter logistic equation. The results are given as IC50 value.

[2] = target: T2, human dopamine D2L receptors (long isoform) (Homo sapiens, UniProt P14416); experiment: Receptor binding study, dopamine D2L receptor ([125I]iodospiperone displacement), selectivity vs D3; conditions: selectivity ratio, HEK-293 membranes
T2 construct: expressed in transfected cells; host or cells: HEK-293
Procedure: (§4) The substance to be tested was either dissolved in methanol/Chremophor® (BASF SE) or in dimethyl sulfoxide and then diluted with water to the desired concentration.
(§5) Each assay mixture was run in triplicate. • The incubation buffer contained 50 mM tris, 120 mM NaCl, 5 mM KCl, 2 mM CaCl2, 2 mM MgCl2 and 0.1% bovine serum albumin, 10 μM quinolone and 0.1% ascorbic acid (prepared fresh daily). […] Each assay mixture was run in triplicate. • The incubation buffer contained 50 mM tris, 120 mM NaCl, 5 mM KCl, 2 mM CaCl2, 2 mM MgCl2 and 0.1% bovine serum albumin. The buffer was adjusted to pH 7.4 with HCl. c) Measurement and Analysis: • After having been incubated at 25° C. for 60 minutes, the assay mixtures were filtered through a Whatman GF/B glass fiber filter under vacuum using a cell collecting device. The filters were transferred to scintillation viols using a filter transfer system. After 4 ml of Ultima Gold® (Packard) have been added, the samples were shaken for one hour and the radioactivity was then counted in a Beta-Counter (Packard, Tricarb 2000 or 2200CA).

[3] = target: T3, human dopamine D3 receptors (Homo sapiens, UniProt P35462); experiment: Receptor binding study, dopamine D3 receptor ([125I]-iodosulpride displacement); conditions: membranes of HEK-293 cells, 0.1 nM [125I]-iodosulpride, 25° C., 60 minutes
T3 construct: expressed in transfected cells; host or cells: HEK-293
Procedure: as §4, §5

[4] = Determination of the microsomal half-life / microsomal clearance, human; type: in vitro ADME; conditions: human liver microsomes, 0.5 μM test substance, 0.25 mg microsomal protein/ml, NADPH, 37° C.
Procedure: as §1, §2, §3

T3 sequence (P35462 whole entry): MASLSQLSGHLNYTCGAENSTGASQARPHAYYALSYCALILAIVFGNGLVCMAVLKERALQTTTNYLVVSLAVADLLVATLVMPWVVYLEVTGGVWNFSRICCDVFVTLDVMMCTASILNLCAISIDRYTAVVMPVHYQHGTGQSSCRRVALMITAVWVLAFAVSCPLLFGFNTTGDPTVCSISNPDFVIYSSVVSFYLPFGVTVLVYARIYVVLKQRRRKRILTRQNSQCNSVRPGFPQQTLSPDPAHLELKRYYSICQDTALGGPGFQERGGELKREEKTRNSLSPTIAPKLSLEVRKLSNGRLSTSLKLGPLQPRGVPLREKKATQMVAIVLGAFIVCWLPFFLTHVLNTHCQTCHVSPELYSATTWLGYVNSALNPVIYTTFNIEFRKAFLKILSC
T1 sequence (Q12809 whole entry): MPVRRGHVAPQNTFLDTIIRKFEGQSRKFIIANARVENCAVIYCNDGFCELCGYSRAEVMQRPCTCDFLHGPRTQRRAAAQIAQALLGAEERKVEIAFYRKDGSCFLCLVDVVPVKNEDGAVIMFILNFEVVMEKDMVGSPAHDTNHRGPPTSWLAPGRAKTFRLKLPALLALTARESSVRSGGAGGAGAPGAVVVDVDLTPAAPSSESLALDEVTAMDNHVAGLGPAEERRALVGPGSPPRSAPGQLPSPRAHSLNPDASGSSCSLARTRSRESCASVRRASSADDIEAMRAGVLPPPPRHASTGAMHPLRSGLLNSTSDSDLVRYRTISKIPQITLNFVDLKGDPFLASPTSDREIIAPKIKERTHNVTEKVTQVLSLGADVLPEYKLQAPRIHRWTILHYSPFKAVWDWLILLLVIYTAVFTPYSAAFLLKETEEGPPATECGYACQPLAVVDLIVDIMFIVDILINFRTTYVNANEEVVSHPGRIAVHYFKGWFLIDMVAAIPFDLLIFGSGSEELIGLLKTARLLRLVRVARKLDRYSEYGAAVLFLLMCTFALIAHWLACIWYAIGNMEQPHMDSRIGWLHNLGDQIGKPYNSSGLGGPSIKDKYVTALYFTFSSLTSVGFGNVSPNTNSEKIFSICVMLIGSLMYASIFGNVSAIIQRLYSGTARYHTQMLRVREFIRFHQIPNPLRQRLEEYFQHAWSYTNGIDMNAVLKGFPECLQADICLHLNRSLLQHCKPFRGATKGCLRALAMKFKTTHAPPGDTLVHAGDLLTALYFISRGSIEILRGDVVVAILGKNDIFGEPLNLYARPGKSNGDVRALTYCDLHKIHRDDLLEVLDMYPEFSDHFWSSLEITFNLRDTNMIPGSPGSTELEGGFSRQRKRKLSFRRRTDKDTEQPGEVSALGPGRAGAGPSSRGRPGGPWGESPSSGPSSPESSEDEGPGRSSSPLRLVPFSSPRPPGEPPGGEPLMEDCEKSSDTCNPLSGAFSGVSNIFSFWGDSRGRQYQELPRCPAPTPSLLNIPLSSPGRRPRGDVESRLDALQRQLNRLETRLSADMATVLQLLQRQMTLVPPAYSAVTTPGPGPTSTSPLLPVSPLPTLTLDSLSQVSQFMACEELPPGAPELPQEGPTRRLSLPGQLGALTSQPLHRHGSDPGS
T2 sequence (P14416 whole entry, canonical isoform): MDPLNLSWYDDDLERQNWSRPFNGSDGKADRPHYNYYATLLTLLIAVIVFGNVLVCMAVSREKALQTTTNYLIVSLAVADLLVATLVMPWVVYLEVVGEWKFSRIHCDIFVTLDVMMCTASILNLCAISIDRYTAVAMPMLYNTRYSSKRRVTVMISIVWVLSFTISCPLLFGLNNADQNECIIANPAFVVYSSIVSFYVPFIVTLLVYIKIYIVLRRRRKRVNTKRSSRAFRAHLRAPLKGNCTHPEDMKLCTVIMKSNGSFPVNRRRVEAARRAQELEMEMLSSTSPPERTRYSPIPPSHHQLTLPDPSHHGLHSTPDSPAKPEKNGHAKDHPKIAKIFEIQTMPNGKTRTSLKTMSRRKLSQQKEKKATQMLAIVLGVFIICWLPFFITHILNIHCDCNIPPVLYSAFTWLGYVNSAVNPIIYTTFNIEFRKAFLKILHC

COCCc1cc(N2CCN(CC[C@H]3CC[C@@H](NC(C)=O)CC3)[C@@H](C)C2)nc(C(C)(C)C)n1 [Compound 7, cis-N-[4-(2-{(2S)-4-[2-tert-Butyl-6-(2-methoxy-ethyl)-pyrimidin-4-yl]-2-methyl-piperazin-1-yl}-ethyl)-cyclohexyl]-acetamide]
Rat mCl [1]: + (+: 20-120 μl min^−1 mg^−1) | pIC50 (hERG cardiac K+ channel): < 5.00 | D2/D3 (Ki (D2L)/Ki (D3)) [2]: +++ (+++>50) | pKi [3]: > 8.00 | Human mCl [4]: + (+: 20-120 μl min^−1 mg^−1)

COCCc1cc(N2CCN(CC[C@H]3CC[C@H](NC(C)=O)CC3)[C@@H](C)C2)nc(C(C)(C)C)n1 [Compound 9, trans-N-[4-(2-{(2S)-4-[2-tert-Butyl-6-(2-methoxy-ethyl)-pyrimidin-4-yl]-2-methyl-piperazin-1-yl}-ethyl)-cyclohexyl]-acetamide]
Rat mCl [1]: + (+: 20-120 μl min^−1 mg^−1) | pIC50 (hERG cardiac K+ channel): < 5.00 | D2/D3 (Ki (D2L)/Ki (D3)) [2]: +++ (+++>50) | pKi [3]: > 8.00 | Human mCl [4]: + (+: 20-120 μl min^−1 mg^−1)

COCCc1cc(N2CCN(CC[C@H]3CC[C@H](NC=O)CC3)CC2)nc(C(C)(C)C)n1 [Compound 11, trans-N-[4-(2-{4-[2-tert-Butyl-6-(2-methoxy-ethyl)-pyrimidin-4-yl]-piperazin-1-yl}-ethyl)-cyclohexyl]-formamide]
Rat mCl [1]: + (+: 20-120 μl min^−1 mg^−1) | pIC50 (hERG cardiac K+ channel): < 5.00 | D2/D3 (Ki (D2L)/Ki (D3)) [2]: +++ (+++>50) | pKi [3]: > 8.00 | Human mCl [4]: + (+: 20-120 μl min^−1 mg^−1)

CC(=O)N[C@H]1CC[C@H](CCN2CCN(c3cc(CCO)nc(C(C)(C)C)n3)CC2)CC1 [Compound 13, trans-N-[4-(2-{4-[2-tert-Butyl-6-(2-hydroxy-ethyl)-pyrimidin-4-yl]-piperazin-1-yl}-ethyl)-cyclohexyl]-acetamide]
Rat mCl [1]: + (+: 20-120 μl min^−1 mg^−1) | pIC50 (hERG cardiac K+ channel): < 5.00 | D2/D3 (Ki (D2L)/Ki (D3)) [2]: +++ (+++>50) | pKi [3]: > 8.00 | Human mCl [4]: + (+: 20-120 μl min^−1 mg^−1)
